# Test results reported in ChEMBL document CHEMBL4229572, “VU6007477, a Novel M1 PAM Based on a Pyrrolo[2,3-b]pyridine Carboxamide Core Devoid of Cholinergic Adverse Events” (ACS Med Chem Lett, 2018).
# Positions count from the first letter of the chain named. pEC50: −log10 of the molar value. Calls of active or inactive are those of the source. No cut-off for these calls is given here.
# How the values were obtained:
# [1] = biological target: T1, Muscarinic acetylcholine receptor M1 (Rattus norvegicus) (UniProt P08482); experiment: (§1) Positive allosteric modulation of rat M1 receptor expressed in CHO cells assessed as increase in acetylcholine-induced calcium mobilization pretreated for 2.5 mins followed by acetylcholine addition and measured after 1 min by Fluo-4-AM dye based assay; assay type: functional, cell-based
# T1 sequence (whole entry): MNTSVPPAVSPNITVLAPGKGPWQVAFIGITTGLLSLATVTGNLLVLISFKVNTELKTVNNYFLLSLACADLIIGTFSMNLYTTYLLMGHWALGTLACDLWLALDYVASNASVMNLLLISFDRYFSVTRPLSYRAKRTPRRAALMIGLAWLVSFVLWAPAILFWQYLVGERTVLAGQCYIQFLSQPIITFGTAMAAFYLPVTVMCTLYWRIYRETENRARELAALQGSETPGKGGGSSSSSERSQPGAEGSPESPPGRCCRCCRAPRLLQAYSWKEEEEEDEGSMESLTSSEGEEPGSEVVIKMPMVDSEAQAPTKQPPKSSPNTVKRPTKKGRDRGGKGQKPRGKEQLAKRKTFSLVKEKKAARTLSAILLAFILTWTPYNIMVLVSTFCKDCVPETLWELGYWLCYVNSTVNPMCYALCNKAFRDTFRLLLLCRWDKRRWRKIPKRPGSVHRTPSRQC
# [2] = biological target: T2, Muscarinic acetylcholine receptor M1 (Rattus norvegicus, UniProt P08482); experiment: as §1; assay type: functional, cell-based; details: for pEC50: read-out: EC50
# T2 sequence (P08482 whole entry): T1 sequence (whole entry)
# [3] = biological target: T2, Muscarinic acetylcholine receptor M1; experiment: (§2) Agonist activity at rat M1 receptor expressed in CHO cells assessed as increase in calcium mobilization measured after 2.5 mins by Fluo-4-AM dye based assay; assay type: functional, cell-based; details: for pEC50: read-out: EC50; for EC50: read-out: pEC50 (converted)
# [4] = biological target: T1, Muscarinic acetylcholine receptor M1 (Rattus norvegicus); experiment: as §2; assay type: functional, cell-based
# [5] = biological target: T3, Muscarinic acetylcholine receptor M1 (Homo sapiens) (UniProt P11229); experiment: (§3) Positive allosteric modulation of human M1 receptor expressed in CHO cells assessed as increase in acetylcholine-induced calcium mobilization pretreated for 2.5 mins followed by acetylcholine addition and measured after 1 min by Fluo-4-AM dye based assay; assay type: functional, cell-based
# T3 sequence (whole entry): T1 sequence (whole entry) with V5A, S254T, S309P, K320R, G337A, V413I
# [6] = biological target: T4, Muscarinic acetylcholine receptor M1 (Homo sapiens, UniProt P11229); experiment: as §3; assay type: functional, cell-based
# T4 sequence (P11229 whole entry): T1 sequence (whole entry) with V5A, S254T, S309P, K320R, G337A, V413I
# [7] = biological target: T4, Muscarinic acetylcholine receptor M1; experiment: Agonist activity at human M1 receptor expressed in CHO cells assessed as increase in calcium mobilization measured after 2.5 mins by Fluo-4-AM dye based assay; assay type: functional, cell-based
# [8] = Protein binding in rat plasma assessed as unbound fraction at 5 uL measured after 4 hrs by LC-MS/MS based equilibrium dialysis method; assay type: ADME, cell-free
# [9] = Protein binding in human plasma assessed as unbound fraction at 5 uL measured after 4 hrs by LC-MS/MS based equilibrium dialysis method; assay type: ADME, cell-free
# [10] = Protein binding in rat brain assessed as unbound fraction; assay type: ADME, tissue-based
# [11] = Total brain to plasma partition coefficient, Kp in cannulated Sprague-Dawley rat at 0.2 mg/kg, iv administered via jugular vein as cassette dose measured after 0.25 hrs by LC-MS/MS analysis; assay type: ADME, organism-based; details: for Kp at 0.25 h: Sprague-Dawley, brain and plasma; for Kp: brain, 0.25 h, BLD = below limit of detection
# [12] = Ratio of unbound brain to plasma concentration in cannulated Sprague-Dawley rat at 0.2 mg/kg, iv administered via jugular vein as cassette dose measured after 0.25 hrs by LC-MS/MS analysis; assay type: ADME, organism-based; details: for Kp uu at 0.25 h: Sprague-Dawley, brain and plasma, read-out: K(p,uu,brain); for K(p,uu,brain): 0.25 h, BLD = below limit of detection
# [13] = Total brain to plasma partition coefficient, Kp in C57BL/6J mouse at 100 mg/kg, ip after 1 hr by LC-MS/MS analysis; assay type: ADME, organism-based; details: brain and plasma
# [14] = Ratio of unbound brain to plasma concentration in C57BL/6J mouse at 100 mg/kg, ip after 1 hr by LC-MS/MS analysis; assay type: ADME, organism-based; details: brain and plasma, read-out: K(p,uu,brain)
# Mus musculus = experiment: Cholinergic toxicity in C57BL/6J mouse assessed as induction of seizure activity at 100 mg/kg, ip measured within 30 mins; assay type: organism-based; details: in vivo, 0.5 h
Structure (SMILES),%max [1],pEC50 [2],EC50 [3],%max [4],pEC50 [3],also measured
Cn1ccc(-c2ccc(Cc3cc(C(=O)NC[C@@H]4CCCO4)nc4c3ccn4C)cn2)n1,84%,6.31,> 10 µM,,,pEC50 ([3]; cho): < 5.00
Cn1ccc(-c2ccc(Cc3cc(C(=O)N[C@@H]4CCCC[C@H]4O)nc4c3ccn4C)cc2)n1,87%,6.74,,41%,5.49,%max [5]: 84%; pEC50 [6]: 6.74; pEC50 [7]: 6.74
Cn1ccc(-c2ccc(Cc3cc(C(=O)NC4CCOC(C)(C)C4)nc4c3ccn4C)cn2)n1 (centres undefined),94%,6.26,> 10 µM,,,pEC50 ([3]; cho): < 5.00
Cn1ccc(-c2ccc(Cc3cc(C(=O)N[C@@H]4CCOC[C@H]4O)nc4c3ccn4C)cc2)n1,87%,7.40,,65%,5.65,"%max [5]: 83%; pEC50 [6]: 7.22; pEC50 [7]: 7.22; fraction unbound at 4 h, 5 uL [8]: 0.03; fraction unbound at 4 h, 5 uL [9]: 0.02; fraction unbound [10]: 0.01; Kp at 0.25 h [11]: 0.11; Kp uu at 0.25 h [12]: 0.05; Kp at 1 h [13]: 0.09; Kp uu at 1 h [14]: 0.04; Activity (Mus musculus): Toxic"
Cn1ccc(-c2ccc(Cc3cc(C(=O)NC4CC5(COC5)C4)nc4c3ccn4C)cc2)n1,91%,6.22,,,< 5.00,
Cn1ccc2c(Cc3ccc(-c4cscn4)cc3)cc(C(=O)NC3CCOCC3)nc21,86%,6.12,> 31.6 µM,,< 4.52,
Cn1ccc2c(Cc3ccc(-c4nccs4)cc3)cc(C(=O)N[C@@H]3CCOC[C@H]3O)nc21,90%,7.00,,41%,5.25,"%max [5]: 80%; pEC50 [6]: 7.05; pEC50 [7]: 7.05; fraction unbound at 4 h, 5 uL [8]: 0.02; fraction unbound at 4 h, 5 uL [9]: 0.02; fraction unbound [10]: 0.01; Kp at 0.25 h [11]: 0.21; Kp uu at 0.25 h [12]: 0.13; Activity (Mus musculus): Toxic"
O=C(N[C@H]1CCCC[C@@H]1O)C1CN(Cc2ccc(-n3cccn3)cc2)c2ccccc2O1 (some centres undefined),,,,,,Activity [1]: inactive
Cn1cc(-c2ccc(Cc3cc(C(=O)N[C@@H]4CCCC[C@H]4O)nc4c3ccn4C)cn2)cn1,89%,7.40,,58%,5.92,"fraction unbound at 4 h, 5 uL [8]: 0.06; fraction unbound at 4 h, 5 uL [9]: 0.04; fraction unbound [10]: 0.07; Kp [11]: Bld; K(p,uu,brain) [12]: Bld; Kp at 1 h [13]: 0.03; Kp uu at 1 h [14]: 0.04; Activity (Mus musculus): Toxic"
Cn1ccc(-c2ccc(Cc3cc(C(=O)N[C@@H]4CCCC[C@H]4O)nc4c3ccn4C)cn2)n1,87%,7.00 to 7.05,,53%,5.64,"EC50 ([2]; read-out: pEC50 (converted)): 95.5 nM; %max [5]: 79%; pEC50 [6]: 6.92; pEC50 [7]: 6.91; fraction unbound at 4 h, 5 uL [8]: 0.03; fraction unbound at 4 h, 5 uL [9]: 0.12; fraction unbound [10]: 0.04; Kp [11]: Bld; K(p,uu,brain) [12]: Bld; Kp at 1 h [13]: 0.28; Kp uu at 1 h [14]: 0.17; Activity (Mus musculus): Toxic"
Cn1ccc(-c2ccc(Cc3cc(C(=O)NC4CCOCC4)nc4c3ccn4C)cn2)n1,90%,6.12,> 10 µM,34%,,pEC50 ([3]; cho): < 5.00
Cn1cc(-c2ccc(Cn3cc(C(=O)N[C@H]4CCCC[C@@H]4O)c4c(F)cc(F)cc43)cn2)cn1,,,,,,Activity [1]: inactive
Cn1ccc2c(Cc3ccc(-c4nccs4)cc3)cc(C(=O)N[C@@H]3CCCC[C@H]3O)nc21,91%,6.44,> 31.6 µM,,< 4.52,
Cn1ccc(-c2ccc(Cc3cc(C(=O)NC4CCOCC4)nc4c3ccn4C)cc2)n1,89%,6.25,,,< 5.00,"%max [5]: 87%; pEC50 [6]: 6.18; pEC50 [7]: 6.18; fraction unbound at 4 h, 5 uL [8]: 0.04; fraction unbound at 4 h, 5 uL [9]: 0.02; fraction unbound [10]: 0.01; Kp [11]: Bld; K(p,uu,brain) [12]: Bld"
Cn1ccc(-c2ccc(Cc3cc(C(=O)N[C@@H]4CCOC[C@H]4O)nc4c3ccn4C)cn2)n1,86%,7.85,,67%,6.24,
Cn1ccc(-c2ccc(Cc3cc(C(=O)N[C@@H]4CCC[C@H]4O)nc4c3ccn4C)cn2)n1,86%,6.59,> 10 µM,,,pEC50 ([3]; cho): < 5.00
Cn1ccc(-c2ccc(Cc3cc(C(=O)NC4CC5(COC5)C4)nc4c3ccn4C)cn2)n1,89%,6.24,> 31.6 µM,,< 4.52,
Cn1ccc2c(Cc3ccc(-n4cccn4)cc3)cc(C(=O)NC3CCOCC3)nc21,87%,6.31,> 10 µM,26%,,pEC50 ([3]; cho): < 5.00
Cc1nc(-c2ccc(Cc3cc(C(=O)NC4CCOCC4)nc4c3ccn4C)cc2)co1,88%,6.12,> 10 µM,,,pEC50 ([3]; cho): < 5.00
Cn1ccc(-c2ccc(Cc3cc(C(=O)NCC4CCOCC4)nc4c3ccn4C)cn2)n1,87%,5.80,> 31.6 µM,,< 4.52,
Cn1ccc2c(Cc3ccc(-c4nccs4)cc3)cc(C(=O)NC3CCOCC3)nc21,78%,5.76,> 31.6 µM,,< 4.52,
